The results in this text go back to patent publication US8871753B2, “Macrocyclic compounds and their use as kinase inhibitors” (Incyte Corporation, priority 2008, dated 2014).

What all share (type): biochemical
Assay [1] deals with T1, human JAK1 (a.a. 837-1142) (Homo sapiens, UniProt P23458).
T1 construct: human JAK1 (a.a. 837-1142); His tag (N); made in house; host or cells: insect cells (baculovirus)
The assay can be described thus: In vitro JAK kinase assay (HTRF, phosphorylation of a biotinylated peptide), JAK1. The following applies: Table B1; read-out: JAK1 IC50. An outline of the steps:
(§1)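 Kinase activity was measured as phosphorylation of a biotinylated peptide, with ATP at 90 μM for JAK1, 30 μM for JAK2 and 3 μM for JAK3. Reactions ran 1 hr at room temperature, were stopped with EDTA plus SA-APC and Eu-Py20, and were read by HTRF after 40 minutes of antibody binding.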

The target in assay [2] is T2, human JAK2 (a.a. 828-1132) (Homo sapiens, UniProt O60674).
T2 construct: JAK2 (a.a. 828-1132); His tag (N); made in house; host or cells: insect cells (baculovirus)
T2 sequence (O60674 828-1132): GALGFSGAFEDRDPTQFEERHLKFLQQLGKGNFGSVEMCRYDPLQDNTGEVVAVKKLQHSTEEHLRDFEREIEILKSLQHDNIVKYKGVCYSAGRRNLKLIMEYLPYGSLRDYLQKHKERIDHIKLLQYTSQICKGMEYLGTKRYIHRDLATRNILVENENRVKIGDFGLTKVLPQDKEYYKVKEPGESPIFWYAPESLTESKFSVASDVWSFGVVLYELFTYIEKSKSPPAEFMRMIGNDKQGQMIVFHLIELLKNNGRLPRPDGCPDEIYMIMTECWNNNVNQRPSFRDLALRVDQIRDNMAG
Briefly: In vitro JAK kinase assay (HTRF, phosphorylation of a biotinylated peptide), JAK2. The settings on record: Table B1. An outline of the steps: as §1

For assay [3], the target named is T3, human JAK3 (a.a. 781-1124) (Homo sapiens, UniProt P52333).
T3 construct: JAK3 (a.a. 781-1124); His tag (N); made in house; host or cells: insect cells (baculovirus)
T3 sequence (P52333 781-1124): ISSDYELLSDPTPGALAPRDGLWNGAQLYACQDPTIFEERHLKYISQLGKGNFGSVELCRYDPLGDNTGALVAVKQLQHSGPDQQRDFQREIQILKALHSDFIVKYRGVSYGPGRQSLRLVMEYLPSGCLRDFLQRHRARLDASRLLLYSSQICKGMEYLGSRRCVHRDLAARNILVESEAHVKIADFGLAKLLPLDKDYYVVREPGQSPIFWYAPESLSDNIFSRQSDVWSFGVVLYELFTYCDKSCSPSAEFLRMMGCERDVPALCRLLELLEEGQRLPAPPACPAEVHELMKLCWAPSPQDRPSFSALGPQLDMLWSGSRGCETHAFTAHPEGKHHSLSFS
The assay can be described thus: In vitro JAK kinase assay (HTRF, phosphorylation of a biotinylated peptide), JAK3. The settings on record: Table B1. An outline of the steps: as §1
For orientation: In TR-FRET formats the signal depends on donor and acceptor labels being close together.

Assay [4] deals with TYK2 (Homo sapiens, UniProt P29597). Briefly: TYK2 kinase inhibition (Table A1). The settings on record: Table B1.
Chain of TYK2 (P29597 whole entry): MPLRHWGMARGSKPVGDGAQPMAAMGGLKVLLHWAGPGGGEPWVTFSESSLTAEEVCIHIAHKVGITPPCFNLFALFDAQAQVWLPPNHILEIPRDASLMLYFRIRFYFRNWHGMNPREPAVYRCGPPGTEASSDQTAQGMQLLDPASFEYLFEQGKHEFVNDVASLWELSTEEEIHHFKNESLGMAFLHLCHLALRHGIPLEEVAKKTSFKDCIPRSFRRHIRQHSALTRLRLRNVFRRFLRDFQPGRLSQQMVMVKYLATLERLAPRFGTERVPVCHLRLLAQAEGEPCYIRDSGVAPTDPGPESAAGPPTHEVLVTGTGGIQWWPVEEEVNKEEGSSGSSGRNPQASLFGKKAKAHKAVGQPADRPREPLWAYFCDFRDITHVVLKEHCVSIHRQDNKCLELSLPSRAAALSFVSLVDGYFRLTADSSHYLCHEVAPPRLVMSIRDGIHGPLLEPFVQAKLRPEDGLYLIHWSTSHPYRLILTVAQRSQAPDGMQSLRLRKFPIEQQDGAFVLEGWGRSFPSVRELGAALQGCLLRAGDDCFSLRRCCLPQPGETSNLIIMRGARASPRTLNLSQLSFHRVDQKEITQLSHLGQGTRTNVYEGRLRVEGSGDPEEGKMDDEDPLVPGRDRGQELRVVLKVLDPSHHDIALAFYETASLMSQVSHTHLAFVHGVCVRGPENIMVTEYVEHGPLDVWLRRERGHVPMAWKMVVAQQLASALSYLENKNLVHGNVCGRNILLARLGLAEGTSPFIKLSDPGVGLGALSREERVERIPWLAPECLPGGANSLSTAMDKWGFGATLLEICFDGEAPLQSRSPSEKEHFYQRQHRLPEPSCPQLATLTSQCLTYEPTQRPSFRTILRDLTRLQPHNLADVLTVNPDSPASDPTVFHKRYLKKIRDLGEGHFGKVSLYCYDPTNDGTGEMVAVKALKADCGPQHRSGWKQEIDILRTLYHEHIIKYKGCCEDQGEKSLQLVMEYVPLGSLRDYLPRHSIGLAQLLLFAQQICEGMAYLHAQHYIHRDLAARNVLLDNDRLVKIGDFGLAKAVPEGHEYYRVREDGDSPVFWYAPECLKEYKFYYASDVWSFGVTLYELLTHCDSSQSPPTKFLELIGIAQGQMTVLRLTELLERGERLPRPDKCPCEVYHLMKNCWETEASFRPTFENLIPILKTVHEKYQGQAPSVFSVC
For assay [5], the target named is T4, Recombinant Human Anaplastic Lymphoma Kinase (Homo sapiens, UniProt Q9UM73).
T4 construct: purchased Invitrogen, Carlsbad, Calif
T4 sequence (Q9UM73 19-1620): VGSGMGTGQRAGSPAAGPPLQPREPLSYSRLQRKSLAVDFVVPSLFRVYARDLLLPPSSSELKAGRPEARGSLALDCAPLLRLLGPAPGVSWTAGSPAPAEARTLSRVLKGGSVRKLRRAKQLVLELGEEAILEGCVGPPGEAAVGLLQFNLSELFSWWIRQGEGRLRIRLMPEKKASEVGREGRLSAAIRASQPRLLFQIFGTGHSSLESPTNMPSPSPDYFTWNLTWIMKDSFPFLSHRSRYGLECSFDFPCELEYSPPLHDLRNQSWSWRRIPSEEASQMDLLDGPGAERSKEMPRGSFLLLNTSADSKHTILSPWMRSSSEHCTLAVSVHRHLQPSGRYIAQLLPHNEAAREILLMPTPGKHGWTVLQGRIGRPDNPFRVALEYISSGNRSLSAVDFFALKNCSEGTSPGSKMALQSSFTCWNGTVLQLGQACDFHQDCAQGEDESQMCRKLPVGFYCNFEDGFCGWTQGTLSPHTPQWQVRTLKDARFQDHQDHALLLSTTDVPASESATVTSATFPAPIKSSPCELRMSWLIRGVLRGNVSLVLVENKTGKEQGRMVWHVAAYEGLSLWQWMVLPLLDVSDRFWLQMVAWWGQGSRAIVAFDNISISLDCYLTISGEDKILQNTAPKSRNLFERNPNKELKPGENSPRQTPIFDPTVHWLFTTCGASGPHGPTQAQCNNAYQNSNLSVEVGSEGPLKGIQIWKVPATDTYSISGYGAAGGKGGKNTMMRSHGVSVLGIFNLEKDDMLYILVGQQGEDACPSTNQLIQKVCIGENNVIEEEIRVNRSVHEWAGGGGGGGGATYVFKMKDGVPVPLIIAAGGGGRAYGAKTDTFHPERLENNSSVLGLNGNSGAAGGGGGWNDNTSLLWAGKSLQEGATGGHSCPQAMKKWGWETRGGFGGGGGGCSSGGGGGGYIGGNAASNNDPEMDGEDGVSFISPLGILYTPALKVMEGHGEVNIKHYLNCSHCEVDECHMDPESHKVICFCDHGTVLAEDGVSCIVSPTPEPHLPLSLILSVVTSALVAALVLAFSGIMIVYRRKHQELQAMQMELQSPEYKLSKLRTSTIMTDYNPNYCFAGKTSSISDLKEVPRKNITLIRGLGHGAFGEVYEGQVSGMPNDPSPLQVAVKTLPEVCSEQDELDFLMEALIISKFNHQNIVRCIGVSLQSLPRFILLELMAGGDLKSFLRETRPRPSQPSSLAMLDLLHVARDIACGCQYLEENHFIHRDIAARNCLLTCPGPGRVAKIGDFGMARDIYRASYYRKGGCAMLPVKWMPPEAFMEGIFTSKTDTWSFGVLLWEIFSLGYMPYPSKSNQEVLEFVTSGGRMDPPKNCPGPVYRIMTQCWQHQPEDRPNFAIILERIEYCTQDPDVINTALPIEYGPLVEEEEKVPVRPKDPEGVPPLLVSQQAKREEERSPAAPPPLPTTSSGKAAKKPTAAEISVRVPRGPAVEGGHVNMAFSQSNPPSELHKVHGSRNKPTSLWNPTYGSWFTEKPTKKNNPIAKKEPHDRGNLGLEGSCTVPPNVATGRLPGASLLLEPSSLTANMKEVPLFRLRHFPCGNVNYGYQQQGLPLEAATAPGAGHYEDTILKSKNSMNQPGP
Briefly: ALK HTRF kinase assay. The settings on record: for ALK % of inhibition at a concentration of 500 nM or 1 mM: compound at a concentration of 500 nM or 1 mM (not specified), cells shown as percentage. An outline of the steps: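 Biotinylated peptide substrate, recombinant human ALK; detection via europium-chelate antibody to phosphotyrosine paired with streptavidin-APC. Potency expressed as IC50 from four-parameter curve fitting.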

Molecules are shown by their SMILES. pIC50: −log10 of the molar value. Counter-ions that a name gives are not always drawn.

Usually pIC50 stands for the negative decadic logarithm of the IC50, by convention in mol/L.

T1 sequence (P23458 849-1154): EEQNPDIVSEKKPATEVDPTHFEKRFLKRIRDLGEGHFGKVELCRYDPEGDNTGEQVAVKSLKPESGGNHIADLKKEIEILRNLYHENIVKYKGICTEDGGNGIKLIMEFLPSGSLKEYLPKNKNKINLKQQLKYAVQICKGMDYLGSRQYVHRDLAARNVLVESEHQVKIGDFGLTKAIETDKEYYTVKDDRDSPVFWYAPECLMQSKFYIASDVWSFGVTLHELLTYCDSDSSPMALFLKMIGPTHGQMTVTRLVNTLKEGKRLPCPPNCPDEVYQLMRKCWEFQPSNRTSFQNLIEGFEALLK

With `O=C(Nc1cc2cc(c1)Nc1nc(ncc1Cl)Nc1cccc(c1)CC2)Nc1ccccc1F` [Example B213, N-[6-Chloro-2,4,8,22-tetraazatetracyclo[14.3.1.1(3,7).1(9,13)]docosa-1(20),3(22),4,6,9(21),10,12,16,18-nonaen-11-yl]-N′-(2-fluorophenyl)urea trifluoroacetate], the pIC50 is 7.15 in assay [1], 6.76 in assay [2], 6.74 in assay [3] and 6.69 in assay [4]. For the same compound, the “ALK % of inhibition at a concentration of 500 nM or 1 mM” value (from here on “ALK % of inhibition”) in assay [5] was determined as 11%.

Regarding `O=C(Nc1cccc(F)c1)Nc1cc2cc(c1)Nc1nc(ncc1Cl)Nc1cccc(c1)CC2` [Example B214, N-[6-Chloro-2,4,8,22-tetraazatetracyclo[14.3.1.1(3,7).1(9,13)]docosa-1(20),3(22),4,6,9(21),10,12,16,18-nonaen-11-yl]-N′-(3-fluorophenyl)urea trifluoroacetate], the negative logarithm of the IC50 (pIC50) in assay [1] is less than 6.00; in assay [2] it was 6.55; in assay [3], 6.64; in assay [4], less than 6.00. Also, in assay [5], the “ALK % of inhibition” value is on record as 39%.

For the compound `O=C(Nc1cc2cc(c1)Nc1nc(ncc1Cl)Nc1cccc(c1)CC2)NC1CCCC1` [Example B215, N-[6-Chloro-2,4,8,22-tetraazatetracyclo[14.3.1.1(3,7).1(9,13)]docosa-1(20),3(22),4,6,9(21),10,12,16,18-nonaen-11-yl]-N′-cyclopentylurea trifluoroacetate], the negative logarithm of the IC50 (pIC50) was 7.04 in assay [1], 7.37 in assay [2], 6.72 in assay [3] and 6.12 in assay [4]. For the same compound, in assay [5], the “ALK % of inhibition” value was 31%.

With `N#Cc1ccccc1S(=O)(=O)Nc1cc2cc(c1)Nc1nc(ncc1Cl)Nc1cccc(c1)CC2` [Example B216, N-[6-Chloro-2,4,8,22-tetraazatetracyclo[14.3.1.1(3,7).1(9,13)]docosa-1(20),3(22),4,6,9(21),10,12,16,18-nonaen-11-yl]-2-cyanobenzenesulfonamide trifluoroacetate], the pIC50 in assay [1] was 7.32; in assay [2] it was 7.54; in assay [3] it was 6.78; in assay [4], 7.18. The “ALK % of inhibition” value in assay [5] is listed as 1.3%.

On to `Clc1cccc(N2CCN(Cc3cc4cc(c3)Nc3nc(ncc3Cl)Nc3cccc(c3)CC4)CC2)n1` [Example B217, 6-Chloro-11-{[4-(6-chloropyridin-2-yl)piperazin-1-yl]methyl}-2,4,8,22-tetraazatetracyclo[14.3.1.1(3,7).1(9,13)]docosa-1(20),3(22),4,6,9(21),10,12,16,18-nonaene tris(trifluoroacetate)], for which the pIC50 was 6.65 in assay [1]; 7.15 in assay [2]; 6.70 in assay [3]; less than 6.00 in assay [4]; less than 5.00 in assay [5] (Table B1, cells without percent sign).

With `CC(C)(C)OC(=O)N1CC[C@@H](NCc2ccc3cc2CCc2cccc(c2)Nc2ncc(Cl)c(n2)N3)C1` [Example B219, tert-Butyl (3R)-3-({[6-chloro-2,4,8,22-tetraazatetracyclo[14.3.1.1(3,7).1(9,13)]docosa-1(20),3(22),4,6,9(21),10,12,16,18-nonaen-12-yl]methyl}amino)pyrrolidine-1-carboxylate bis(trifluoroacetate)], the pIC50 is 8.18 in assay [1], 7.80 in assay [2], 7.54 in assay [3] and 7.54 in assay [4]. In assay [5], the “ALK % of inhibition” value came out at 26%.

For `CC(C)(C)OC(=O)N1CC[C@H](NCc2ccc3cc2CCc2cccc(c2)Nc2ncc(Cl)c(n2)N3)C1` [Example B220, tert-Butyl (3S)-3-({[6-chloro-2,4,8,22-tetraazatetracyclo[14.3.1.1(3,7).1(9,13)]docosa-1(20),3(22),4,6,9(21),10,12,16,18-nonaen-12-yl]methyl}amino)pyrrolidine-1-carboxylate bis(trifluoroacetate)], the pIC50 in assay [1] was 8.13; in assay [2], 7.92; in assay [3], 7.44; in assay [4], 7.55. Also, the “ALK % of inhibition” value in assay [5] amounted to 25%.

On to `CC(C)(C)OC(=O)N1CCN(Cc2ccc3cc2CCc2cccc(c2)Nc2ncc(Cl)c(n2)N3)CC1` [Example B221, tert-Butyl 4-{[6-chloro-2,4,8,22-tetraazatetracyclo[14.3.1.1(3,7).1(9,13)]docosa-1(20),3(22),4,6,9(21),10,12,16,18-nonaen-12-yl]methyl}piperazine-1-carboxylate bis(trifluoroacetate)], for which the negative-log IC50 (pIC50) in assay [1] was 7.92; in assay [2], 7.72; in assay [3], 7.23; in assay [4], 7.37. The “ALK % of inhibition” value in assay [5] is 8.1%.

With `Clc1cnc2nc1Nc1ccc(CN[C@@H]3CCNC3)c(c1)CCc1cccc(c1)N2` [Example B222, (3R)—N-{[6-Chloro-2,4,8,22-tetraazatetracyclo[14.3.1.1(3,7).1(9,13)]docosa-1(20),3(22),4,6,9(21),10,12,16,18-nonaen-12-yl]methyl}pyrrolidin-3-amine tris(trifluoroacetate)], the negative-log IC50 (pIC50) is 7.70 in assay [1], 7.85 in assay [2], 7.40 in assay [3] and 7.27 in assay [4]. Besides, the “ALK % of inhibition” value in assay [5] is on record as 34%.

Turning to `Clc1cnc2nc1Nc1ccc(CN[C@H]3CCNC3)c(c1)CCc1cccc(c1)N2` [Example B223, (3S)—N-{[6-Chloro-2,4,8,22-tetraazatetracyclo[14.3.1.1(3,7).1(9,13)]docosa-1(20),3(22),4,6,9(21),10,12,16,18-nonaen-12-yl]methyl}pyrrolidin-3-amine tris(trifluoroacetate)], the pIC50 in assay [1] was 7.77; in assay [2], 8.13; in assay [3], 7.54; in assay [4], 7.38. Also, the “ALK % of inhibition” value in assay [5] came to 41%.

For the compound `Clc1cnc2nc1Nc1ccc(CN3CCNCC3)c(c1)CCc1cccc(c1)N2` [Example B224, 6-Chloro-12-(piperazin-1-ylmethyl)-2,4,8,22-tetraazatetracyclo[14.3.1.1(3,7).1(9,13)]docosa-1(20),3(22),4,6,9(21),10,12,16,18-nonaene tris(trifluoroacetate)], the pIC50 in assay [1] is 7.72; in assay [2], 8.05; in assay [3], 7.39; in assay [4], 7.39. Moreover, the “ALK % of inhibition” value in assay [5] was 28%.

With `CC(=O)N1CCN(Cc2ccc3cc2CCc2cccc(c2)Nc2ncc(Cl)c(n2)N3)CC1` [Example B225, 12-[(4-Acetylpiperazin-1-yl)methyl]-6-chloro-2,4,8,22-tetraazatetracyclo[14.3.1.1(3,7).1(9,13)]docosa-1(20),3(22),4,6,9(21),10,12,16,18-nonaene bis(trifluoroacetate)], the pIC50 in assay [1] is 7.51; in assay [2] it was 8.00; in assay [3], 7.43; in assay [4] it was 7.34. Moreover, in assay [5], the “ALK % of inhibition” value is reported as 27%.

Take `CC(=O)N1CC[C@H](NC(=O)Nc2ccc3cc2CCc2cncc(c2)Nc2ncc(Cl)c(n2)N3)C1` [Example B226, N-[(3S)-1-Acetylpyrrolidin-3-yl]-N′-[6-chloro-2,4,8,18,22-pentaazatetracyclo[14.3.1.1(3,7).1(9,13)]docosa-1(20),3(22),4,6,9(21),10,12,16,18-nonaen-12-yl]urea bis(trifluoroacetate)]: the negative logarithm of the IC50 (pIC50) in assay [1] was 8.40; in assay [2] it was 7.38; in assay [3], 6.51; in assay [4], 7.21. Further, in assay [5], the “ALK % of inhibition” value was 15%.

Take `O=C(Nc1ccc2cc1CCc1cncc(c1)Nc1ncc(Cl)c(n1)N2)N[C@H]1CCN(C(=O)c2ccccc2)C1` [Example B227, N-[(3S)-1-benzoylpyrrolidin-3-yl]-N′-[6-chloro-2,4,8,18,22-pentaazatetracyclo[14.3.1.1(3,7).1(9,13)]docosa-1(20),3(22),4,6,9(21),10,12,16,18-nonaen-12-yl]urea bis(trifluoroacetate)]: the pIC50 in assay [1] is 9.00; in assay [2], 7.54; in assay [3], 6.61; in assay [4] it was 7.48. In assay [5], the “ALK % of inhibition” value is on record as 25%.

Turning to `O=C(Nc1ccc2cc1CCc1cccc(c1)Nc1ncc(Cl)c(n1)N2)N[C@H]1CCN(C(=O)C2CC2)C1` [Example B228, N-[6-Chloro-2,4,8,22-tetraazatetracyclo[14.3.1.1(3,7).1(9,13)]docosa-1(20),3(22),4,6,9(21),10,12,16,18-nonaen-12-yl]-N′-[(3S)-1-(cyclopropylcarbonyl)pyrrolidin-3-yl]urea trifluoroacetate], the pIC50 is 8.22 in assay [1], 7.96 in assay [2], 7.20 in assay [3] and 7.72 in assay [4]. Further, in assay [5], the “ALK % of inhibition” value is reported as 10%.
